Tests used:
Test in all cases: Antibacterial activity
e. coli = tested on: e. coli
Excerpt: (§1) The fragrance accords can contain antibacterial ingredients described above. See U.S. Pat. No. 6,495,512 for a list of suitable antibacterial ingredients.

e. hirae = tested on: e. hirae
Excerpt: as §1

s. aureos = tested on: s. aureos
Excerpt: as §1

Measured: antibacterial activity

COc1ccc(C)cc1 [1-methoxy-4-methylbenzene]
high antibacterial activity: all assays above

C=CC(C)(O)CCC=C(C)C (stereo not drawn) [3,7-dimethylocta-1,6-dien-3-ol]
high antibacterial activity: all assays above
